Assay results from US20240287139A1, “A NOVEL COMPOUND ACTING AGAINST A SELECT GROUP OF BACTERIA” (priority 2021, published 2024).
≈ marks a conversion by molar mass, not a printed value. Like-named read-outs stand apart in the source and are kept apart here. *1 amine or outer side, *2 acyl side, *3 side chain or, on linkers, in order; H or OH if unused. Where a SMILES comes first, the peptide text is derived from it. Bridges are numbered along the chain shown (N, C = ends). [ ]: non-standard residue; d: D form. The star is where a group is joined. ξ: configuration not given here. ξThr(3R)(O-yl) = C[C@@H](O[*:3])C(N[*:1])C(=O)[*:2]; βAsp = O=C(O)[C@H](CC(=O)[*:2])N[*:1]; His(π-Me) = Cn1cncc1C[C@H](N)C(=O)O; For = O=C*

Experiments:
[1] = system: Mycobacterium tuberculosis H37Rv mc^26020; assay: microbe, parasite or virus in culture; assay type: cell-based
[2] = system: Mycobacterium tuberculosis H37Rv mc^26020 mCherry; assay: microbe, parasite or virus in culture; assay type: cell-based
[3] = system: Mycobacterium tuberculosis H37Rv mc^26020 ΔbacA; assay: microbe, parasite or virus in culture; assay type: cell-based
[4] = system: Mycobacterium smegmatis mc^2155; assay: microbe, parasite or virus in culture; assay type: cell-based; conditions: Mycolicibacterium smegmatis
[5] = system: Mycobacterium abscessus ATCC 19977; assay: microbe, parasite or virus in culture; assay type: cell-based; conditions: Mycobacteroides abscessus, ATCC19977
[6] = system: Staphylococcus aureus HG003; assay: microbe, parasite or virus in culture; assay type: cell-based
[7] = system: Escherichia coli WO153; assay: microbe, parasite or virus in culture; assay type: cell-based
[8] = system: Escherichia coli ΔtolC; assay: microbe, parasite or virus in culture; assay type: cell-based
[9] = system: Escherichia coli ATCC25922; assay: microbe, parasite or virus in culture; assay type: cell-based
[10] = system: Escherichia coli BW25113; assay: microbe, parasite or virus in culture; assay type: cell-based
[11] = system: Escherichia coli MG1655; assay: microbe, parasite or virus in culture; assay type: cell-based
[12] = system: Escherichia coli ΔSbmA; assay: microbe, parasite or virus in culture; assay type: cell-based; conditions: Keio collection mutant
[13] = system: Klebsiella pneumoniae ATCC 700603; assay: microbe, parasite or virus in culture; assay type: cell-based; conditions: ATCC700603
[14] = system: Clostridium perfringens KLE 2523; assay: microbe, parasite or virus in culture; assay type: cell-based; conditions: KLE2523
[15] = system: Enterococcus faecalis KLE 2341; assay: microbe, parasite or virus in culture; assay type: cell-based; conditions: KLE2341; Enterococcus faecalis KLE 2341, anaerobic conditions, human stool isolate
[16] = system: Acinetobacter baumannii ATCC 17978; assay: microbe, parasite or virus in culture; assay type: cell-based; conditions: ATCC17978
[17] = system: Salmonella enterica KLE 2601; assay: microbe, parasite or virus in culture; assay type: cell-based; conditions: KLE2601; Salmonella enterica KLE 2601, anaerobic conditions, human stool isolate
[18] = system: Pseudomonas aeruginosa PA01; assay: microbe, parasite or virus in culture; assay type: cell-based
[19] = system: Lactobacillus reuteri LTH5448; assay: microbe, parasite or virus in culture; assay type: cell-based; conditions: Limosilactobacillus reuteri; Lactobacillus reuteri LTH5448, anaerobic conditions
[20] = system: Lactobacillus paracasei KLE 2504; assay: microbe, parasite or virus in culture; assay type: cell-based; conditions: Lacticaseibacillus paracasei, KLE2504; Lactobacillus paracasei KLE 2504, anaerobic conditions, human stool isolate
[21] = system: Streptococcus parasanguinis KLE 2509; assay: microbe, parasite or virus in culture; assay type: cell-based; conditions: KLE2509; Streptococcus parasanguinis KLE 2509, anaerobic conditions, human stool isolate
[22] = system: Bacteroides fragilis KLE 2244; assay: microbe, parasite or virus in culture; assay type: cell-based; conditions: KLE2244; Bacteroides fragilis KLE 2244, anaerobic conditions, human stool isolate
[23] = system: Bacteroides stercoris KLE 2537; assay: microbe, parasite or virus in culture; assay type: cell-based; conditions: KLE2537; Bacteroides stercoris KLE 2537, anaerobic conditions, human stool isolate
[24] = system: Veillonella ratti KLE 2365; assay: microbe, parasite or virus in culture; assay type: cell-based; conditions: KLE2365; Veillonella ratti KLE 2365, anaerobic conditions, human stool isolate
[25] = assay type: in vivo, mouse; conditions: intraperitoneally at 100 mg kg^−1, observed for 24 hours
[26] = system: E. coli ATCC 25922; assay: Septicemia model, survival; assay type: in vivo, mice; conditions: 1 h after infection
Procedure: The inventors next tested the compound of Formula IV in a simple model of septicemia infection with E. coli to evaluate its potential for activity in vivo. […] Mice were infected with E. coli ATCC25922 intraperitoneally for 1 hour followed by intraperitoneal administration of the compound of Formula IV.
Animal study was performed at Northeastern University, approved by Northeastern IACUC, and was performed according to institutional animal care and policies. Experiments were not randomized nor blinded, as it was not deemed necessary. Female CD-1 mice (20-25 g, experimentally naive, 6 weeks old) from Charles River were used for all studies. The compound of Formula IV was tested in a septicemia model against E. coli ATCC 25922. Mice were infected with 0.5 ml of E. coli ATCC 25922 suspension in BHI with 5% mucin (1×10^6 to 5×10^6) via intraperitoneal injection. This dose achieves >83% mortality within 24 h after infection. At 1 h after infection, mice were treated by the compound of Formula IV from 10 mg kg^−1 to 100 mg kg^−1 by intraperitoneal injection. Infection control mice were treated with 50 mg kg^−1 gentamicin as positive control. Survival was monitored for 120 h.

[27] = system: E. coli WO153; assay: Macromolecule incorporation assay; assay type: cell-based; conditions: 8×MIC
Procedure: Incorporation of ^14C-thymidine (DNA), ^14C-uridine (RNA), ^14C-L-amino acid mixture (protein), ^14C-acetic acid (fatty acid) and ^14C-acetyl-glucosamine (peptidoglycan) was determined in cells treated with 8×MIC of the compound of Formula IV (grey bars). Ciprofloxacin (8×MIC), rifampicin (8×MIC), chloramphenicol (8×MIC), triclosan (8×MIC) and fosfomycin (8×MIC) were used as controls (white bars). There were n=3 biologically independent samples.
Macromolecular synthesis assay against DNA, RNA, protein and fatty acid were analyzed by ImQuest BioSciences Inc. (MD, USA) with E. coli WO153 cells.

[28] = system: M. tuberculosis; assay: Microscopy, cell elongation; assay type: cell-based; conditions: 10×MIC, 48 hours of treatment
[29] = system: M. tuberculosis H37Rv mc^26020; assay: Time-dependent killing; assay type: cell-based; conditions: 10×MIC
[30] = biological target: T1, MtbGyrase (Mycobacterium tuberculosis, UniProt P9WG45+P9WG47); assay type: biochemical, M. tuberculosis; conditions: 100 μM compound, 0-20 nM enzyme
[31] = biological target: E. coli gyrase (Escherichia coli, UniProt P0AES4+P0AES6); assay type: biochemical; conditions: 100 μM compound
[32] = biological target: E. coli topoisomerase IV (topo IV) (Escherichia coli, UniProt P0AFI2+P20083); assay type: biochemical; conditions: 100 μM compound; strong cleavage visible at 5 nM enzyme
[33] = biological target: T1, MtbGyrase; assay: biochemical; set-up: species or system M. tuberculosis; conditions: 20 nM MtbGyrase
[34] = system: commensal bacteria including Lactobacillus sp. and Bacteroides sp.; assay type: cell-based
[35] = system: wild type E. coli; assay: microbe, parasite or virus in culture; assay type: cell-based; conditions: Escherichia coli
[36] = system: HepG2
[37] = system: FaDu
[38] = system: HEK293
[39] = system: HepG2; assay: cells; conditions: Homo sapiens, HepG2, read-out: Human cell line (IC50)
[40] = system: FaDu; assay: cells; conditions: Homo sapiens, read-out: Human cell line (IC50)
[41] = system: HEK293; assay: cells; conditions: Homo sapiens, HEK293, read-out: Human cell line (IC50)
[42] = physchem; conditions: water
[43] = biological target: T1, MtbGyrase; assay: DNA-stimulated ATPase assay (NADH-coupled); conditions: 250 nM gyrase, 100 μM drug
[44] = Mycobacterium tuberculosis, M. tuberculosis H37Rv mc^26020, read-out: MIC

T1 sequence (P9WG45 whole entry, looked up): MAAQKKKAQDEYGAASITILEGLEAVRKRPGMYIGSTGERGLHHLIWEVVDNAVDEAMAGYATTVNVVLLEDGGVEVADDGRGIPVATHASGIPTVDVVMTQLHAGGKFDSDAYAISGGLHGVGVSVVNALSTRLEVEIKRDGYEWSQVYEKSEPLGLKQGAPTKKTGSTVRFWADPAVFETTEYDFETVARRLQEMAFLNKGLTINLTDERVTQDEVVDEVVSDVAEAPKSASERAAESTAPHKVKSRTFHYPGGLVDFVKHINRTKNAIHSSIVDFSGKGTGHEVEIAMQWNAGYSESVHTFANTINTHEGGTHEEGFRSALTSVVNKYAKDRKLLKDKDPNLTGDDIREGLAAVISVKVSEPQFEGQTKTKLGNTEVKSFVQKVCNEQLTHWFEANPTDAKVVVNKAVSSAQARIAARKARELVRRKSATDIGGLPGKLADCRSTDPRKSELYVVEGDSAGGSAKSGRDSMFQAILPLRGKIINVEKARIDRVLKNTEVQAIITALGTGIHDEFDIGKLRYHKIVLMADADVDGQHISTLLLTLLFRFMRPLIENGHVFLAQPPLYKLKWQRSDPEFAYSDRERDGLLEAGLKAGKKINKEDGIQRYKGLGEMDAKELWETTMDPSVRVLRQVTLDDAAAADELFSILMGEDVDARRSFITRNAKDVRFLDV
T1 sequence (P9WG47 whole entry, looked up): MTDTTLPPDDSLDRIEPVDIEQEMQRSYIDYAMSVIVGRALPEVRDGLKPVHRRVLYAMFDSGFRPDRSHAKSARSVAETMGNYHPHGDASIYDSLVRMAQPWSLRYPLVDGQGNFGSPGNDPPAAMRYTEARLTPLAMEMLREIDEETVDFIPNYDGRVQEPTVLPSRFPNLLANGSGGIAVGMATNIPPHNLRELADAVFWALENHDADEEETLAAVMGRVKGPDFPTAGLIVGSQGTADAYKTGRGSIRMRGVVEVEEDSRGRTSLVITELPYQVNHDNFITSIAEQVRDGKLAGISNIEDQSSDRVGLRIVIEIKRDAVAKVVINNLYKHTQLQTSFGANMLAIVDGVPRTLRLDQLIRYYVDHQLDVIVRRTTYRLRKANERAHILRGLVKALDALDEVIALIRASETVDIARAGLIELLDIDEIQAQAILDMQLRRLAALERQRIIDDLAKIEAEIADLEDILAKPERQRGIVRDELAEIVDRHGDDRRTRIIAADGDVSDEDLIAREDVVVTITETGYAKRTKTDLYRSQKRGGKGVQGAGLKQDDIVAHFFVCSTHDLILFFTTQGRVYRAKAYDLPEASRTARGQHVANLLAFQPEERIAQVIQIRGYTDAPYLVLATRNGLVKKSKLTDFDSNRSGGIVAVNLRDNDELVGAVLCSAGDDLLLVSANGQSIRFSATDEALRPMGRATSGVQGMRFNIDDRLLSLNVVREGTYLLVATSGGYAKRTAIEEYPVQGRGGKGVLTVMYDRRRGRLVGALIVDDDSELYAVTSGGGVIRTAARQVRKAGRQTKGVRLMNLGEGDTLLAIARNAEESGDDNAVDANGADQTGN
Chain of E. coli gyrase (P0AES4 whole entry, one chain of several): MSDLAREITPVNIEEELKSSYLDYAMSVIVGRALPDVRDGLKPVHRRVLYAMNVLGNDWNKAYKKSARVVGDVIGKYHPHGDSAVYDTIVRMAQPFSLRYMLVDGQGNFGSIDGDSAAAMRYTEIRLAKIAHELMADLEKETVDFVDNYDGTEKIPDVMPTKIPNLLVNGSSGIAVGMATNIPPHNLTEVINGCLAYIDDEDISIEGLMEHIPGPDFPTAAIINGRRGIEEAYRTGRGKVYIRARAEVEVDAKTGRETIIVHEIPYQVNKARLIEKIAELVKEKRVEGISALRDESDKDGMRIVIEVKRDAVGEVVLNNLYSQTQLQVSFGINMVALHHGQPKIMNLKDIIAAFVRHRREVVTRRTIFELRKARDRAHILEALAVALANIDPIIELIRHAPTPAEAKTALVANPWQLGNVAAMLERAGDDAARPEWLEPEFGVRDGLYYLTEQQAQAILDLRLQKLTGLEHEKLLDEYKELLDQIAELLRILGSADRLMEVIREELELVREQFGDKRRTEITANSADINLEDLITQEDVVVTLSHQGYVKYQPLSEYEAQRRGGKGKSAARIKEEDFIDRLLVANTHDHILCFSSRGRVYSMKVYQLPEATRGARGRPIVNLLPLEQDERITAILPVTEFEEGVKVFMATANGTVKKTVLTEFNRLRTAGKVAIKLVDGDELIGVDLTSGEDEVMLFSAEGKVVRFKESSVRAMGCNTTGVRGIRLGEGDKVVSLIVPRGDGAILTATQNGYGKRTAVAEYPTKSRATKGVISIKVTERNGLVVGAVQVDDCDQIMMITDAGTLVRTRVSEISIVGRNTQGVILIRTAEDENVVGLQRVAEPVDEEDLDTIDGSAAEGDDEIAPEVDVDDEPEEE
Chain of E. coli topoisomerase IV (topo IV) (P20083 whole entry): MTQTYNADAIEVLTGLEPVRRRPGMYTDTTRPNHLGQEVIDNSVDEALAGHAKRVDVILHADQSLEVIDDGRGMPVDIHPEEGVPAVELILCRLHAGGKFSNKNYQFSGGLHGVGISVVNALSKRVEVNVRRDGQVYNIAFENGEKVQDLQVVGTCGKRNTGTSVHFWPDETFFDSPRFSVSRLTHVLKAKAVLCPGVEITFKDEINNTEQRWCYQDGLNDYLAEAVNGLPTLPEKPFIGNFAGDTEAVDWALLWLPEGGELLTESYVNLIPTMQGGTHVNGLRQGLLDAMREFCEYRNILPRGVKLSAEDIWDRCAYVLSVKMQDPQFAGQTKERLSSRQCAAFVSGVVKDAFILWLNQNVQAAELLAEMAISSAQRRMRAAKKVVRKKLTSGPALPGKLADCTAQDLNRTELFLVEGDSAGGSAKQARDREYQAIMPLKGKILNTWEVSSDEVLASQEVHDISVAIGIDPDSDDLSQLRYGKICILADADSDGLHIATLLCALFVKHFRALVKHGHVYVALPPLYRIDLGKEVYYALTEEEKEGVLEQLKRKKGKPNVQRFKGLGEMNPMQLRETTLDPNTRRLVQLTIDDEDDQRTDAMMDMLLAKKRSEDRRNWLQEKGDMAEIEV
Chain of E. coli topoisomerase IV (topo IV) (P0AFI2 whole entry): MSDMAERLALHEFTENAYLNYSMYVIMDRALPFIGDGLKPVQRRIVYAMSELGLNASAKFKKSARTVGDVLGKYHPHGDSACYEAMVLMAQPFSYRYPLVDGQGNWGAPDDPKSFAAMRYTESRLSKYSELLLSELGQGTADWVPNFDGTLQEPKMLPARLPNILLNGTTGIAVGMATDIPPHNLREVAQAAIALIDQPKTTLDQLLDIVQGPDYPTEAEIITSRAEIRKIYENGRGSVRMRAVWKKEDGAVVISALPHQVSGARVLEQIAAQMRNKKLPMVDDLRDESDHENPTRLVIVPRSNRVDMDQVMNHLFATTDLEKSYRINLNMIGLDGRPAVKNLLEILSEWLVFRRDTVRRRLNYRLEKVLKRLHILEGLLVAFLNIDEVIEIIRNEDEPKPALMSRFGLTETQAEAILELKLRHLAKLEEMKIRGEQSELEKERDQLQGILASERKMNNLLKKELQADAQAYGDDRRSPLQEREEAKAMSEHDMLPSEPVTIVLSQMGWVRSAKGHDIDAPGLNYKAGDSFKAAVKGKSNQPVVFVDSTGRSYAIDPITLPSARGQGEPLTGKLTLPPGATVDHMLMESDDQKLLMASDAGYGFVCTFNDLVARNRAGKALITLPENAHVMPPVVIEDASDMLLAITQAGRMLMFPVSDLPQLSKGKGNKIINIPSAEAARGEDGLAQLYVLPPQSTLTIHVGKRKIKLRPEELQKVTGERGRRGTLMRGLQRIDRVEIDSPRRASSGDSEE

SMILES: COc1c(N2C[C@@H]3CCCN[C@@H]3C2)c(F)cc2c(=O)c(C(=O)O)cn(C3CC3)c12 [Moxifloxacin, reference compound]
- MIC [1, 44]: 0.125 µg/mL (≈ 0.311 µM)

SMILES: C[C@H]1OC(=O)C[C@@H](C(=O)O)NC(=O)[C@H](CO)NC(=O)[C@@H](CCCNC(=N)N)NC(=O)CNC(=O)[C@H](Cc2ccccc2)NC(=O)[C@@H](CO)NC(=O)C[C@@H](C(=O)O)NC(=O)[C@H](Cc2cncn2C)NC(=O)C1NC(=O)[C@@H](CCCNC(=N)N)NC(=O)[C@@H](NC(=O)[C@H](Cc1c[nH]c2ccccc12)NC=O)[C@@H](C)O (stereo partly drawn) [compound of Formula IV] (For-WT[dR][ξThr(3R)(O-yl)][His(π-Me)][βAsp][dS]FG[dR]SD-OH; ester 4-12)
- MIC [2]: 0.0625 µg/mL
- MIC ([1]; Mycobacterium tuberculosis H37Rv mc^26020): 0.25 µg/mL
- MIC [1, 44]: 0.25 µg/mL
- MIC [3]: 16 µg/mL
- MIC [4]: 8 µg/mL
- MIC [5]: 16 µg/mL
- MIC [6]: 128 µg/mL
- MIC ([7]; Escherichia coli WO153): 0.0625 µg/mL
- MIC ([7]; Escherichia coli, E. coli WO153, compromised penetration barrier, read-out: MIC): 0.0625 µg/mL
- MIC of tolC deletion mutant, times higher as compared to E. coli WO153 [8]: 4 times
- MIC of tolC deletion mutant, times lower than in the wild type [8]: 64 times
- MIC ([8]; Escherichia coli ΔtolC, Keio collection mutant): 0.25 µg/mL
- MIC ([8]; Escherichia coli, E. coli tolC deletion mutant, read-out: MIC): 0.25 µg/mL
- MIC [9]: 8 µg/mL
- MIC [10]: 16 µg/mL
- MIC [11]: 16 µg/mL
- MIC [12]: 128 µg/mL
- MIC [13]: 32 µg/mL
- MIC [14]: 64 µg/mL
- MIC [15]: > 128 µg/mL
- MIC [16]: 128 µg/mL
- MIC [17]: 128 µg/mL
- MIC [18]: > 128 µg/mL
- MIC [19]: > 128 µg/mL
- MIC [20]: > 128 µg/mL
- MIC [21]: > 128 µg/mL
- MIC [22]: 64 µg/mL
- MIC [23]: > 128 µg/mL
- MIC [24]: > 128 µg/mL
- toxicity in a mouse, survival [25]: no indications of toxicity
- efficacy, septicemia infection with E. coli ATCC25922 ([26]; 100 mg kg^−1 dose intraperitoneal): completely protected
- efficacy, septicemia infection with E. coli ATCC25922 ([26]; single dose of 25 mg kg^−1 intraperitoneal): significant efficacy
- effect on DNA synthesis (^14C-thymidine incorporation) [27]: inhibits DNA synthesis
- effect on RNA, protein and fatty acid synthesis [27]: less of an effect
- cell length compared to nontreated cells [28]: approximately 2 times
- killing of exponentially growing M. tuberculosis ([29]; exponential cells): highly bactericidal
- killing of stationary M. tuberculosis ([29]; stationary cells): highly bactericidal
- DNA cleavage by MtbGyrase [30]: induced DNA cleavage
- supercoiling activity of MtbGyrase [30]: inhibited the supercoiling activity
- inhibition of DNA supercoiling by gyrase compared with supercoil relaxation by topo IV [31]: more potent inhibitor of DNA supercoiling by gyrase
- DNA cleavage by E. coli gyrase ([31]; strong cleavage visible at 5 nM enzyme): stimulated DNA cleavage
- DNA cleavage by E. coli topo IV [32]: stimulated DNA cleavage
- DNA cleavage in the absence of ATP ([33]; absence of ATP): little to no cleavage
- IC50 ([33]; in the presence of ATP): ~1000 nM
- activity against commensal bacteria [34]: no activity
- MIC [35]: 16 µg/mL
- toxicity against human cell line [36]: no toxicity
- toxicity against human cell line [37]: no toxicity
- toxicity against human cell line [38]: no toxicity
- IC50 [39]: > 128 µg/mL
- IC50 [40]: > 128 µg/mL
- IC50 [41]: > 128 µg/mL
- solubility [42]: > 40 mg/mL
- overall rate (vmax) of ATPase activity [43]: 45±7.2 ATP·s^−1 per enzyme
